Results reported in patent US20220089602A1, “COMPOUNDS THAT INDUCE FERROPTIC CELL DEATH” (The Board of Trustees of the University of Illinois, priority 2019, published 2022).

Columns and labels:
[1] = In vitro glutathione assay (LC-MS); type: physicochemical; conditions: 100 μM compound, 5 mM glutathione, PBS, 37° C.
Protocol: To an eppendorf tube added, 245 μL of 1×PBS, 5 μL of 10 mM DMSO stock of ferroptocide or P23 and 250 μL of reduced GSH (5 mM final concentration). Reactions were vortexed briefly and incubated at 37° C. Adduct formation was monitored at the indicated time points (0, 0.5, 1, 2, 3, 24 hr) by mixing an aliquot of 50 μL from the reaction mixture with 50 μL of MeOH before LC/MS analysis.

S. aureus = test: Antibacterial activity (MIC); type: cell-based; conditions: Staphylococcus aureus; gram positive (S. aureus)
A549 cells = test: Speed of cell death, AV/PI flow cytometry; type: cell-based; conditions: each at 10 μM, A549 (K-RAS mutant)
Protocol: (§1) ES-2, HCT 116, Mia PaCa-2, A549, and 4T1 cells (1×10^5 cells/mL) were plated overnight in 12 well plates, prior to addition of compounds. For protection studies, samples were pre-treated with each protecting agent such as 25 μM Q-VD-OPh, 250 μM trolox, 2 μM ferrostatin-1, 5 mM NAC-1 (neutralized pH), or 100 μM deferoxamine (DFO) for two hours or 1 hr (NAC-1) before compound addition. Cells were incubated for the appropriate times and harvested for flow cytometry analysis. Cell pellets were resuspended in binding buffer (10 mM HEPES, pH 7.4, 140 mM NaCl, 2.5 mM CaCl2) containing 2 μg/mL propidium iodide and 5 μL/mL Annexin V-FITC conjugate antibody and analyzed for cell viability after gating for forward and side scattering. Ten thousand events were collected per sample in BD LSR II Flow Cytometer (BD Bioscience) and FCS express V6, De Novo software was used to perform experimental analysis.

Mia PaCa-2 cells = test: Speed of cell death, AV/PI flow cytometry; type: cell-based; conditions: 10 μM, Mia PaCa-2, AV/PI
Protocol: as §1

ES-2 cells = test: Cellular lipid ROS production (C11-BODIPY); type: cell-based; conditions: 10 μM
Protocol: (§2) ES-2, HCT 116, and 4T1 cells (1×10^5 cells/mL) were plated in 12-well plates. Cells were pre-treated for 2 hr with 100 μM deferoxamine followed by treatment with DMSO, 10 μM ferroptocide, 10 μM RSL3, or 100 μM TBHP for 1 hr, 1.5 hr and 2 hr respectively. Cells were washed with HBSS and incubated in the dark for 20 min with 5 μM C11-BODIPY probe. Cells were then washed 2× with HBSS and harvested at 1000×g, 3 min. After resuspension in 500 μl HBSS buffer, samples were analyzed with flow cytometry to record ten thousand events per sample in FL1 channel in BD LSR II Flow Cytometer (BD Bioscience). FCS express V6 De Novo software was used to generate histograms.

HCT 116 cells = test: Cellular lipid ROS production (C11-BODIPY); type: cell-based; conditions: 10 μM
Protocol: as §2

HT-29 cells = test: RNA sequencing of treated cells; type: cell-based; conditions: 10 μM, 6 hr
Protocol: Total RNA was extracted by RNeasy Kit (QIAGEN) and digested with DNase (QIAGEN) from n=2 samples per condition (DMSO, 10 μM ferroptocide cells treated for 6 hr). RNA quality was assessed with a 2100 Agilent Bioanalyzer prior to library preparation. The RNAseq libraries were prepared using the TruSeq Stranded mRNAseq Sample Prep kit (version 1) following manufacturer's instruction (Illumina). Libraries were then quantified, pooled, and sequenced by single-end 150 base pairs using the Illumina HiSeq 4000 platform at the Roy J. Carver Biotechnology center. FASTQ files were generated and demultiplexed with the bcl2FASTQ v2.17.1.14 Conversion Software (Illumina). Libraries were sequenced at an average depth of 40-50 million reads per sample. Trimmomatic (v0.36) was utilized to remove sequencing adapters, low-quality bases (PHRED score <28), and reads less than 30 bases in length. Pseudo-alignment and transcript-level counting to NCBI's GRCh38.p11 transcriptome was then performed with Salmon (v 0.8.2) in quasi-mapping mode while correcting for sequence-specific and GC biases, and generating 30 bootstraps. Counts summarized to the gene level (NCBI annotation release 108) using tximport (v 1.6.0) and the “lengthScaledTPM” method. The counts were normalized using the TMM method from edgeR (v 3.20.5) and then transformed to log 2 counts per million (log CPM) with prior.count=3. Genes without at least log CPM>log 2(0.5) in at least 3 samples were filtered out, leaving 16,743 genes for differential expression testing. TMM normalization was re-done after filtering and then limma's (v 3.34.5) voom method was used to find differentially expressed genes for the pairwise comparisons of treatment vs. control in A549, and treatment vs. control in HT29 (batch 2 and 3, 8 samples total, 6 hr), and the interaction between treatment and cell line. P values were adjusted for multiple hypothesis testing with the Benjamini-Hochberg method to generate false discovery rates. Gene set enrichment analysis was done using ESGEA (v 1.6.1) for the Gene Ontology BP, CC and MF gene sets, KEGG pathway gene sets, and Pathway gene sets. The RNA sequencing data have been deposited to the GEO repository with the accession number GSE126868.

For C[C@@H]1CC[C@@]23C[C@H](O)C(=O)[C@@]2(O)[C@]1(C)[C@H](OC(=O)CCl)C[C@@H](C1=CCn2c(=O)n(-c4ccccc4)c(=O)n2C1)[C@@H]3C [Compound P18, ferroptocide], the “reactivity with excess glutathione (in words)” value [1] was “reacts slowly”, the “Compound remaining (%)” value ([1]; 0.5 hr) was 95.1% and the “GSH-Ferroptocide adduct (%)” value ([1]; 0.5 hr) was 4.9%. For the same compound, the “Compound remaining (%)” value ([1]; 1 hr) was 81.8%, the “GSH-Ferroptocide adduct (%)” value ([1]; 1 hr) was 18.2% and the “GSH-Ferroptocide adduct (%)” value ([1]; 2 hr) was 33.2%. The “Compound remaining (%)” value ([1]; 2 hr, listed as Ferroptocide) was 66.8%, the “Compound remaining (%)” value ([1]; 2 hr, listed as ferroptocide) was 67% and the “Compound remaining (%)” value ([1]; 3 hr) was 61.9%. The “GSH-Ferroptocide adduct (%)” value ([1]; 3 hr) was 38.1%, the “Compound remaining (%)” value ([1]; 24 hr) was 27.5% and the “GSH-Ferroptocide adduct (%)” value ([1]; 24 hr) was 72.5%. The MIC (S. aureus) was over 64 µg/mL, the “cell death versus erastin and RSL3” value (A549 cells) was “inducing more quantitative cell death than the other tool compounds” and the “time to 50% cell death” value (Mia PaCa-2 cells; listed as Ferroptocide) was 2 h. For the same compound, the “time to 50% cell death” value (Mia PaCa-2 cells; listed as ferroptocide) was 1.5 h, the “lipid ROS” value (ES-2 cells) was “induces lipid ROS” and the “lipid ROS” value (HCT 116 cells) was “induces lipid ROS”. The “genes involved in ferroptosis modulated” value (HT-29 cells; FDR ≤0.05) was 35/40, the “ATF3 upregulation (RNA-seq)” value (HT-29 cells; HT-29) was 11.5 fold and the “CHAC1 upregulation (RNA-seq)” value (HT-29 cells; HT-29) was 9.8 fold. The “DDIT3 upregulation (RNA-seq)” value (HT-29 cells; HT-29) was 22.5 fold, the “DDIT4 upregulation (RNA-seq)” value (HT-29 cells; HT-29) was 11.3 fold and the “GCLC upregulation (RNA-seq)” value (HT-29 cells; HT-29) was 3.5 fold. For the same compound, the “GCLM upregulation (RNA-seq)” value (HT-29 cells; HT-29) was 4.9 fold and the “SLC7A11 upregulation (RNA-seq)” value (HT-29 cells; HT-29) was 8.1 fold.
